From patent US20230183678A1, “IN-CELL CONTINUOUS TARGET-GENE EVOLUTION, SCREENING AND SELECTION” (COMMISSARIAT À L'ENERGIE ATOMIQUE ET AUX ENERGIES …, priority 2020, published 2023)

Columns and labels:
PDZ = molecular target: T1, PDZ (Homo sapiens, UniProt P78352); conditions: cI-PDZ/rpoA-CRIPT pair; read-out: affinity; cited from earlier work
T1 construct: expressed in transfected cells; host or cells: E. coli BL21(DE3) Star or Acella, plasmid VN419

[1] = molecular target: T2, rpoA-stop (premature stop codon resulting in no fusion peptide) (UniProt P0A7Z4 1-248, limits assumed); test: bacterial two-hybrid coupled to Bxb1 DNA invertase; sequencing of colonies showed no inversion
T2 construct: also called VN376
T2 sequence (P0A7Z4 1-248 limits assumed): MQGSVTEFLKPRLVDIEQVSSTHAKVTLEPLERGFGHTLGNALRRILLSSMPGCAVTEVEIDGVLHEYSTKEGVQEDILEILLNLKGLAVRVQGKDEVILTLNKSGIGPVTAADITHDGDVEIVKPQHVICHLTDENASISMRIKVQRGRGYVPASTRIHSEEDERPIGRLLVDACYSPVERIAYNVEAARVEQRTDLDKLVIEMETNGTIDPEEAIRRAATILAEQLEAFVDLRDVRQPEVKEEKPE

Q: With CRIPT [rpoA-CRIPT] as the molecule, how does the Kd (PDZ) read?
A: 800 nM

B1: cI-PDZ (DBD-target fusion) (other)
chain: MSTKKKPLTQEQLEDARRLKAIYEKKKNELGLSQESVADKMGMGQSGVGALFNGINALNAYNAALLAKILKVSVEEFSPSIAREIYEMYEAVSMQPSLRSEYEYPVFSHVQAGMFSPELRTFTKGDAERWVSTTKKASDSAFWLEVEGNSMTAPTGSKPSFPDGMLILVDPEQAVEPGDFCIARLGGDEFTFKKLIRDSGQVFLQPLNPQYPMIPCNESCSVVGKVIASQWPEETFGAAALGEEDIPREPRRIVIHRGSTGLGFNIVGGEDGEGIFISFILAGGPADLSGELRKGDQILSVNGVDLRNASHEQAAIALKNAGQTVTIIAQYKPEEYSRFEAK
notes: Expressed in E. coli BL21(DE3) Star or Acella cells from plasmid VN419
Q: Does B1 bind [1]?
A: no binding
